In series [1] the test system is Candida albicans. Nature of the series: Antifungal activity against Candida albicans 14936 assessed as inhibition of fungal growth incubated for 48 hrs. The format is functional.
For series [2], the system named is Candida albicans. Description: Antifungal activity against Candida albicans 56452 assessed as inhibition of fungal growth incubated for 48 hrs. The format is functional.
Another series relates to HEK293. Nature of the series: Cytotoxicity against HEK293 cells assessed as reduction in cell viability at 128 uM incubated for 4 hrs by MTT assay. The note with it: human, hek293, 4 h. The class given is toxicity, cell-based.
The test system of series [3] is Candida albicans. Description: Antifungal activity against Candida albicans CGMCC 2.2086 assessed as inhibition of fungal growth incubated for 48 hrs in presence of NH4Cl. The format is functional.
For series [4], the system named is Candida albicans. Nature of the series: Antifungal activity against Candida albicans CGMCC 2.2086 assessed as inhibition of fungal growth incubated for 48 hrs in presence of CaCl2. The class given is functional.
Series [5] in a line: Stability of the compound in NH4Cl assessed as change in secondary structure by CD spectra analysis. The class given is physicochemical.
Series [6] can be described thus: Stability of the compound in MgCl2 assessed as change in secondary structure by CD spectra analysis. The format is physicochemical.
Series [7] is described as follows: Stability of the compound in ZnCl2 assessed as change in secondary structure by CD spectra analysis. The class given is physicochemical.
Series [8] can be described thus: Proteolytic stability of the compound assessed as trypsin (unknown origin)-mediated drug degradation measured after 8 hrs by 16.5% tricine-SDS-PAGE analysis. The class given is ADME. Particulars: human.
In series [9] the test system is Candida albicans. Nature of the series: Antifungal activity against Candida albicans CGMCC 2.2086 assessed as inhibition of fungal growth incubated for 2 hrs in presence of protease K. The format is functional, organism-based.
A short description of series [10]: Proteolytic stability of the compound assessed as trypsin (unknown origin)-mediated drug degradation measured after 8 hrs by RP-HPLC analysis. The format is ADME. Particulars: human.
Series [11] relates to Candida albicans. Nature of the series: Induction of Candida albicans CGMCC 2.2086 cell wall permeabilization by NPN probe based assay. The class given is functional, organism-based. The note with it: dose 1-128 µM.
In another series the test system is Cell membrane. Nature of the series: Induction of cytoplasmic membrane depolarization in Candida albicans CGMCC 2.2086 at 0.5 to 2X MIC measured up to 3600 secs by DISC3-5 dye based fluorescence assay. Particulars: time <= 3600.0 sec. The format is subcellular.
The test system of series [12] is Candida albicans. Description: Induction of ROS generation in Candida albicans CGMCC 2.2086 measured after 60 mins by […] dye based fluorescence assay. The format is functional, organism-based. The note with it: dose 0.5-128 µM.
Series [13] deals with Candida albicans. Nature of the series: Induction of morphological changes in Candida albicans CGMCC 2.2086 assessed as appearance of cell wrinkles at 1X MIC measured after 60 mins by SEM analysis. The format is functional, organism-based.
Series [14] has as its system Candida albicans. Description: Induction of morphological changes in Candida albicans CGMCC 2.2086 assessed as appearance of cell pits at 1X MIC measured after 60 mins by SEM analysis. The class given is functional, organism-based.
In series [15] the test system is Candida albicans. Description: Induction of morphological changes in Candida albicans CGMCC 2.2086 assessed as appearance of cell holes at 1X MIC measured after 60 mins by SEM analysis. The format is functional, organism-based.
Series [16] has as its system Candida albicans. Nature of the series: Fungicidal activity against Candida albicans CGMCC 2.2086 at 1X MIC measured within 90 mins by time-kill assay. The format is functional, organism-based.
Series [17] has as its system Candida albicans. Description: Resistance development in Candida albicans CGMCC 2.2086 measured after 30 passages by broth microdilution method. The format is functional, organism-based.
Series [18] concerns Candida albicans. Nature of the series: Antifungal activity against Candida albicans CGMCC 2.2086 infected in C57BL/6 mouse keratitis model assessed as increase in ocular transparency at 5 mg/ml administered as 10 uL eye drop every 5 mins for first 1 hr and every 30 mins for next 7 hrs. The class given is functional, organism-based. Particulars: route ou, time 8.0 hrs.

≈ marks a conversion by molar mass, not a printed value. Calls of active or inactive are those of the source. No cut-off for these calls is given here.

Consider `CC[C@H](C)[C@H](N)C(=O)N[C@H](C(=O)N[C@H](CCCNC(=N)N)C(=O)N[C@@H](CCCNC(=N)N)C(=O)N[C@@H](Cc1c[nH]cn1)C(=O)N[C@H](C(=O)N[C@H](C(=O)N[C@H](C(=O)N[C@H](C(=O)N[C@H](CCCNC(=N)N)C(=O)N[C@@H](CCCNC(=N)N)C(=O)N[C@@H](Cc1c[nH]cn1)C(=O)N[C@H](C(=O)N[C@H](C(=O)N[C@H](C(=O)N[C@H](C(=O)N[C@H](CCCNC(=N)N)C(=O)N[C@@H](CCCNC(=N)N)C(=O)N[C@@H](Cc1c[nH]cn1)C(=O)N[C@H](C(=O)N[C@H](C(N)=O)[C@@H](C)CC)[C@@H](C)CC)[C@@H](C)CC)[C@@H](C)CC)[C@@H](C)CC)[C@@H](C)CC)[C@@H](C)CC)[C@@H](C)CC)[C@@H](C)CC)[C@@H](C)CC)[C@@H](C)CC`, for which the MIC95 in the series on Candida albicans [1] was found to be 4 µM (≈ 10.9 µg/mL); in the series on Candida albicans [2], 2 µM (≈ 5.45 µg/mL); with Candida albicans [3] it was 2 µM; in the series with Candida albicans [4], 8 µM. Besides, the Activity result is “Toxic” in the series with HEK293, “Dose-dependent-effect” in the series with Candida albicans [11], “Dose-dependent-effect” with Candida albicans [12] and “Active; Eliminated All Fungal Organisms” in the series with Candida albicans [16]. Moreover, the Stability entry in [5], in series [6], in [7], in series [8] and in [10] was “Stable” in each case. In addition, the result in the series on Candida albicans [9], in the series on Cell membrane, with Candida albicans [13], with Candida albicans [14], with Candida albicans [15] and with Candida albicans [18] was Active. In the series on Candida albicans [17], the result was inactive.

For the origin of these results see ChEMBL document CHEMBL6134779, “Design of Proteolytic-Resistant Antifungal Peptides by Utilizing Minimum d-Amino Acid Ratios” (J Med Chem, 2024).
